Experimental data from patent EP1016405A2, “Arylating medicaments” (Radopath Pharmaceuticals International Limited, priority 1993, dated 1994).
Where “and” joins values, the source holds several entries; their conditions need not be identical. Equal entries are not always repeated. Where two headings read alike, the source gives them in different places.

Legend:
[1] = tested on: MAC15A (murine adenocarcinoma colon); assay: Anti-tumour activity against MAC15A ascites tumour, survival T/C%; type: in vivo, mice; details: for T/C%: mouse, in vivo; for response vs control in vivo at 100 mg/kg: Mus musculus, MAC15A, read-out: T/C%
[2] = in vitro; details: CC50 (Toxicity)
[3] = tested on: HIV-1IIIB; assay: Acute infection assay against HIV-1IIIB; type: cell-based, human immunodeficiency virus; details: for IC50: read-out: IC50 (Antiviral)
[4] = tested on: HIV-1RF; assay: Acute Infection Assay, HIV core antigen ELISA in C8166 cells; type: cell-based, human immunodeficiency virus
[5] = tested on: uninfected cells
[6] = in vivo; details: mouse, ip
[7] = tested on: B16F1-murine melanoma; details: days 1,5, 12 days after sc transplant, corn oil
[8] = Human immunodeficiency virus 1, Table 11.3, Against HIV-IIIB / HIV-1IIIB, single assays, unit inferred
[9] = Human immunodeficiency virus 1, C8166, read-out: IC50 (Antiviral)
[10] = Human immunodeficiency virus 1, C8166, Table 11.4, Against HIV-1RF, single assays, unit inferred, read-out: IC50 (Antiviral)
[11] = Human immunodeficiency virus 1, IIIB

Compound: Nc1c([N+](=O)[O-])cccc1[N+](=O)[O-] [2,6-dinitroaniline]
- T/C% ([1]; ip): 214%

Compound: COc1ccc(Cl)c([N+](=O)[O-])c1 [4-chloro-3-nitroanisole]
- response vs control in vivo at 100 mg/kg ([1]; ip): 100%

Compound: Nc1ccc([N+](=O)[O-])cc1Cl [2-chloro-4-nitroaniline]
- response vs control in vivo at 100 mg/kg ([1]; ip): 171%

Compound: 4-glutathionyl-3,5-dinitrobenzene
- T/C% ([1]; ip): 113%

Compound: O=C(O)c1ccc(Cl)c(Cl)c1 [Compound C-11, 3,4-dichlorobenzoic acid]
- CC50 [2]: > 200 µM
- IC50 [3, 8]: > 200 µM

Compound: O=[N+]([O-])c1ccc(Cl)cc1Cl [Compound E5, 2,4-dichloronitrobenzene]
- SI (Selectivity Index) [4]: 1
- IC50 [4, 9]: 180 µM
- CC50 [5]: > 200 µM

Compound: O=S(=O)(O)c1ccc(Cl)cc1 [Compound S5, 4-chlorobenzenesulfonic acid]
- IC50 [4, 10]: > 200 µM
- response vs control in vivo at 100 mg/kg ([1]; median survival, test vs solvent control, 100 mg kg^-1 ip per day, schedule days 1,2,3,4,5): 443%
- CC50 [2]: > 200 µM

Compound: Cc1ccc(S(=O)(=O)O)cc1[N+](=O)[O-] [3-nitro-4-methylbenzenesulfonic acid]
- response vs control in vivo at 100 mg/kg ([1]; ip): 229%

Compound: NC(=O)c1cc([N+](=O)[O-])c(N)c([N+](=O)[O-])c1 [4-amino-3,5-dinitrobenzamide]
- response vs control in vivo at 100 mg/kg ([1]; ip, 24 h): 100%

Compound: O=[N+]([O-])c1cc(S(=O)(=O)O)ccc1Cl [Compound S4, 4-chloro-3-nitrobenzenesulfonic acid]
- IC50 [4, 10]: > 200 µM
- response vs control in vivo at 100 mg/kg ([1]; ip): 140%
- CC50 [2]: > 200 µM

Compound: O=[N+]([O-])c1cc(Cl)c(Cl)cc1Cl [Compound E11, 1,2,4-trichloro-5-nitrobenzene]
- IC50 [4, 9]: > 200 µM
- CC50 [2]: > 200 µM

Compound: Nc1c(Cl)cc([N+](=O)[O-])cc1[N+](=O)[O-] [6-chloro-2,4-dinitroaniline]
- T/C% ([1]; ip): 87%

Compound: O=[N+]([O-])c1cc(Cl)cc(Cl)c1 [Compound E8, 3,5-dichloronitrobenzene]
- SI (Selectivity Index) [4]: 1.5
- IC50 [4, 9]: 120 µM
- CC50 [5]: > 200 µM

Compound: O=[N+]([O-])c1ccc(Cl)c(Cl)c1Cl [Compound E10, 1,2,3-trichloro-4-nitrobenzene]
- IC50 [4, 9]: > 200 µM
- CC50 [2]: 90 µM

Compound: Nc1c([N+](=O)[O-])cc(Cl)cc1[N+](=O)[O-] [4-chloro-2,6-dinitroaniline]
- T/C% ([1]; ip): 87%

Compound: COC(=O)c1cc([N+](=O)[O-])c(Cl)c([N+](=O)[O-])c1 [Compound C6, 4-chloro-3,5-dinitrobenzoic acid methyl ester]
- CC50 [2]: 60 µM
- IC50 [3, 11]: 5 µM
- MTD [6]: 2.5 mg/kg

Compound: O=[N+]([O-])c1c(Cl)c(Cl)c(Cl)c(Cl)c1Cl [Compound E14, pentachloronitrobenzene]
- IC50 [4, 9]: > 200 µM
- CC50 [2]: > 200 µM

Compound: O=C(O)c1cc(Cl)ccc1Cl [Compound C-12, 2,5-dichlorobenzoic acid]
- response vs control in vivo at 100 mg/kg ([1]; ip): 171%
- CC50 [2]: > 200 µM

Compound: Nc1ccc([N+](=O)[O-])cc1[N+](=O)[O-] [2,4-dinitroaniline]
- T/C% ([1]; ip): 100%

Compound: O=[N+]([O-])c1ccc(Cl)c(Cl)c1 [Compound E7, 3,4-dichloronitrobenzene]
- IC50 [4, 9]: > 200 µM
- CC50 [5]: > 200 µM

Compound: O=[N+]([O-])c1cc(Cl)cc(Cl)c1[N+](=O)[O-] [Compound E9, 1,5-dichloro-2,3-dinitrobenzene]
- response vs control in vivo at 100 mg/kg ([1]; ip): 386%

Compound: O=C(O)c1ccc([N+](=O)[O-])cc1[N+](=O)[O-] [2,4-dinitrobenzoic acid]
- T/C% ([1]; ip): 100%

Compound: O=C(O)c1ccc(Cl)c([N+](=O)[O-])c1 [Compound C9, 4-chloro-3-nitrobenzoic acid]
- CC50 [2]: > 200 µM
- IC50 [3, 8]: > 200 µM

Compound: O=[N+]([O-])c1ccc(Cl)c([N+](=O)[O-])c1 [Compound E2, 1-chloro-2,4-dinitrobenzene]
- SI (Selectivity Index) [4]: 3
- IC50 [4, 9]: 4 µM
- response vs control in vivo at 100 mg/kg ([1]; ip): 188%
- CC50 [2]: 13 µM

Compound: O=[N+]([O-])c1c(Cl)cc(Cl)c(Cl)c1Cl [Compound E13, 2,3,4,6-tetrachloronitrobenzene]
- IC50 [4, 9]: > 200 µM
- CC50 [2]: 80 µM

Compound: O=C(O)c1cc([N+](=O)[O-])c(Cl)c([N+](=O)[O-])c1 [Compound C4, 4-chloro-3,5-dinitrobenzoic acid]
- % Tumour Weight Inhibition ([7]; 50 mg/kg ip): 10%
- % Tumour Weight Inhibition ([7]; 75 mg/kg ip): 41%
- % Tumour Weight Inhibition ([7]; 100 mg/kg ip): 39%
- TI [4]: 2.33
- CC50 [2]: 100 µM
- CD50 [5]: 70µm
- SI (Selectivity Index) [3]: 2.5 and 2.3

Compound: 2-glutathionyl-3,5-dinitrobenzenesulfonic acid
- T/C% ([1]; ip): 242%

Compound: O=S(=O)(O)c1cc(Cl)ccc1Cl [Compound S7, 2,5-dichlorobenzenesulfonic acid]
- IC50 [4, 10]: > 200 µM
- response vs control in vivo at 100 mg/kg ([1]; ip): 212%
- CC50 [2]: > 200 µM

Compound: O=C(O)c1cc([N+](=O)[O-])cc([N+](=O)[O-])c1Cl [Compound C7, 2-chloro-3,5-dinitrobenzoic acid]
- CC50 [2]: 150 µM
- CC50 [5]: > 200 µM
- SI (Selectivity Index) [3]: 6 and >10
- IC50 [3]: 23 µM

Compound: Nc1c([N+](=O)[O-])cc(S(=O)(=O)O)cc1[N+](=O)[O-] [Compound S3, 4-amino-3,5-dinitrobenzenesulfonic acid]
- TI [4]: 5
- IC50 ([4]; read-out: IC50): 20 µM
- T/C% ([1]; ip): 286%
- CD50 [5]: 100µm

Compound: O=[N+]([O-])c1cc(Cl)ccc1Cl [Compound E6, 2,5-dichloronitrobenzene]
- SI (Selectivity Index) [4]: 2
- IC50 [4, 9]: 110 µM
- CC50 [2]: > 200 µM

Compound: O=[N+]([O-])c1ccc(S(=O)(=O)O)c([N+](=O)[O-])c1 [Compound S8, 2,4-dinitrobenzenesulfonic acid]
- IC50 ([4]; read-out: IC50 (Antiviral)): 40 µM and 30 µM
- T/C% ([1]; ip): 171%
- CC50 [2]: 100 µM

Compound: O=C(O)c1cc([N+](=O)[O-])cc([N+](=O)[O-])c1 [3,5-dinitrobenzoic acid]
- T/C% ([1]; ip): 100%

Compound: O=[N+]([O-])c1ccc(Cl)cc1[N+](=O)[O-] [Compound E1, 1-chloro-3,4-dinitrobenzene]
- SI (Selectivity Index) [4]: 2.5
- IC50 ([4]; read-out: IC50 (Antiviral)): 4 µM
- T/C% ([1]; ip): 200%
- CC50 [2]: 10 µM

Compound: O=[N+]([O-])c1cccc(Cl)c1Cl [Compound E4, 2,3-dichloronitrobenzene]
- SI (Selectivity Index) [4]: 1.5
- IC50 [4, 9]: 80 µM
- CC50 [5]: > 200 µM

Compound: COC(=O)c1cc([N+](=O)[O-])cc([N+](=O)[O-])c1Cl [Compound C8, 2-chloro-3,5-dinitrobenzoic acid methyl ester]
- CC50 [2]: 60 µM
- IC50 [3, 11]: 10 µM

Compound: O=[N+]([O-])c1cc([N+](=O)[O-])c(Cl)c(S(=O)(=O)O)c1 [Compound S2, 2-chloro-3,5-dinitrobenzenesulfonic acid]
- TI [4]: >8
- IC50 ([4]; read-out: IC50): 25 µM
- T/C% ([1]; ip): 137%
- CD50 [5]: >200µm

Compound: O=C(O)c1ccc([N+](=O)[O-])cc1Cl [Compound C-10, 2-chloro-4-nitrobenzoic acid]
- CC50 [2]: > 200 µM
- IC50 [3, 8]: > 200 µM

Compound: O=[N+]([O-])c1cc(Cl)c(Cl)cc1[N+](=O)[O-] [Compound E3, 1,2-dichloro-4,5-dinitrobenzene]
- SI (Selectivity Index) [4]: 1.5
- IC50 ([4]; read-out: IC50 (Antiviral)): 4 µM
- T/C% ([1]; ip): 171%
- CC50 [2]: 7 µM
